Test results: ChEMBL document CHEMBL1131794, “The synthesis and evaluation of 6-alkylidene-2'beta-substituted penam sulfones as beta-lactamase inhibitors” (Bioorg Med Chem Lett, 1999)
pIC50: −log10 of the molar value.

Key:
Beta-lactamase TEM = Beta-lactamase TEM (Escherichia coli, UniProt P62593); experiment: Inhibitory activity against serine Beta-lactamase TEM derived from […]; assay type: single protein
Beta-lactamase [1] = molecular target: T1, Beta-lactamase (Staphylococcus aureus, UniProt P00807); experiment: Inhibitory activity against serine Beta-lactamase derived from Staphylococcus aureus
T1 sequence (P00807 whole entry): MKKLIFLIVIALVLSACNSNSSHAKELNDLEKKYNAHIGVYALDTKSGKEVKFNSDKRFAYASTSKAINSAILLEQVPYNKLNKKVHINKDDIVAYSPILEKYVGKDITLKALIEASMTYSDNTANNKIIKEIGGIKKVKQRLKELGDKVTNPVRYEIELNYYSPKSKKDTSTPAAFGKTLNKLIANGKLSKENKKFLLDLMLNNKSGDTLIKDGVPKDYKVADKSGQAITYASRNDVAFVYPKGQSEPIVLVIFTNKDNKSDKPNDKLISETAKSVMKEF

Beta-lactamase [2] = molecular target: T1, Beta-lactamase; experiment: Inhibitory activity against serine beta-lactamase, PC1 (class A) derived from Staphylococcus aureus
Escherichia coli [3] = experiment: In vitro synergistic activity against Escherichia coli C600N + (IRT-2); assay type: functional; note: test concentration or dose not given here
Escherichia coli [4] = experiment: In vitro synergistic activity against Escherichia coli C600N + (Imi-1); assay type: functional
Escherichia coli [5] = experiment: In vitro synergistic activity against Escherichia coli C600N + (OXA-10) {PSE-2}; assay type: functional
Pseudomonas aeruginosa = experiment: In vitro synergistic activity against Pseudomonas aeruginosa Ps505A1 (AmpC derepressed); assay type: functional; note: test concentration or dose not given here
Escherichia coli [6] = experiment: In vitro synergistic activity against Escherichia coli ATCC 25922 (no beta-lactamase); assay type: functional; note: test concentration or dose not given here
Escherichia coli [7] = experiment: In vitro synergistic activity against Escherichia coli 4100 (no beta-lactamase); assay type: functional
Escherichia coli [8] = experiment: In vitro synergistic activity against Escherichia coli C600N + (SHV-1); assay type: functional
Escherichia coli [9] = experiment: In vitro synergistic activity against Escherichia coli C600N + (L1); assay type: functional
Escherichia coli [10] = experiment: In vitro synergistic activity against Escherichia coli C600N + (P99); assay type: functional
Aeromonas sobria = experiment: In vitro synergistic activity against Aeromonas sobria (Asb A, OXA-12, Asb M); assay type: functional; note: test concentration or dose not given here
Escherichia coli [11] = experiment: In vitro synergistic activity against Escherichia coli C600N + (SHV-4); assay type: functional
Escherichia coli [12] = experiment: In vitro synergistic activity against Escherichia coli C600N + (TEM-10); assay type: functional
Escherichia coli [13] = experiment: In vitro synergistic activity against Escherichia coli GC6265 (TEM-1); assay type: functional
Staphylococcus aureus = experiment: In vitro synergistic activity against Staphylococcus aureus (PC1); assay type: functional; note: test concentration or dose not given here
Klebsiella pneumoniae [14] = experiment: In vitro synergistic activity against Klebsiella pneumoniae (ACT-1 + 3 blas, IPM=S); assay type: functional; note: test concentration or dose not given here
Escherichia coli [15] = experiment: In vitro synergistic activity against Escherichia coli 4100 + (CCRA); assay type: functional
Enterobacter cloacae [16] = experiment: In vitro synergistic activity against Enterobacter cloacae SC12629 (AmpC inducible); assay type: functional; note: test concentration or dose not given here
Escherichia coli [17] = experiment: In vitro synergistic activity against Escherichia coli C600N + (PSE-1); assay type: functional
[18] = test system: Stenotrophomonas maltophilia; experiment: In vitro synergistic activity against Stenotrophomonas maltophilia 1712(L1); assay type: functional; note: test concentration or dose not given here
Klebsiella aerogenes = experiment: In vitro synergistic activity against Enterobacter aerogenes GC 6268 clinical isolate; assay type: functional; note: test concentration or dose not given here
Escherichia coli [19] = experiment: In vitro synergistic activity against Escherichia coli GC6267 clinical isolate; assay type: functional
Escherichia coli [20] = experiment: In vitro synergistic activity against Escherichia coli ATCC 35218 (TEM-1); assay type: functional
Escherichia coli [21] = experiment: In vitro synergistic activity against Escherichia coli C600N + (Sme-1); assay type: functional
Escherichia coli [22] = experiment: In vitro synergistic activity against Escherichia coli C600N + (MIR-1); assay type: functional
Escherichia coli [23] = experiment: In vitro synergistic activity against Escherichia coli C600N + (ampR ampC); assay type: functional; note: test concentration or dose not given here
Klebsiella pneumoniae [24] = experiment: In vitro synergistic activity against Klebsiella pneumoniae KC2 (TEM-10); assay type: functional; note: test concentration or dose not given here
Klebsiella pneumoniae [25] = experiment: In vitro synergistic activity against Klebsiella pneumoniae GC 6269 clinical isolate; assay type: functional; note: test concentration or dose not given here
Serratia marcescens = experiment: In vitro synergistic activity against Serratia marcescens GC 4132 (Amp C); assay type: functional; note: test concentration or dose not given here
Escherichia coli [26] = experiment: In vitro synergistic activity against Escherichia coli 300 + (TEM-1); assay type: functional
Escherichia coli [27] = experiment: In vitro synergistic activity against Escherichia coli GC 6266 clinical isolate; assay type: functional
Escherichia coli [28] = experiment: In vitro synergistic activity against Escherichia coli C600N + (TEM-1); assay type: functional
Escherichia coli [29] = experiment: In vitro synergistic activity against Escherichia coli 300 + (ampR ampC); assay type: functional; note: test concentration or dose not given here
Enterobacter cloacae [30] = experiment: In vitro synergistic activity against Enterobacter cloacae (Imi-1+AmpC); assay type: functional
Escherichia coli [31] = experiment: In vitro synergistic activity against Escherichia coli C600N (no beta-lactamase); assay type: functional

Sequence of Beta-lactamase TEM (P62593 whole entry): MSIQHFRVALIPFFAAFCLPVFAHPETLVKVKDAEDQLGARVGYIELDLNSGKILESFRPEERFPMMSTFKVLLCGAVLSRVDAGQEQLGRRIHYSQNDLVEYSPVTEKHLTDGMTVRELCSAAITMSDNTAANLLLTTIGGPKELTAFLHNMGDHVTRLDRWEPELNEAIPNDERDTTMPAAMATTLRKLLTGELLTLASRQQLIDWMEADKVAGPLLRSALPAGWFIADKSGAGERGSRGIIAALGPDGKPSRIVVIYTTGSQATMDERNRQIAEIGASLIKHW

## CC(=O)OC[C@@]1(C)[C@H](C(=O)O)N2C(=O)/C(=C/c3ccccn3)C2S1(=O)=O (stereo partly drawn)
Beta-lactamase TEM
  pIC50: 8.40
Beta-lactamase [1]
  pIC50: 7.21
Beta-lactamase [2]
  pIC50: 6.18

## C[C@@H](O)[C@H]1C(=O)N2C(C(=O)O)=C(SCCNC=N)C[C@H]12 [IMIPENEM ANHYDROUS]
Escherichia coli [3]
  MIC: 0.25 µg/mL
Escherichia coli [4]
  MIC: 4 µg/mL
Escherichia coli [5]
  MIC: 0.12 µg/mL
Pseudomonas aeruginosa
  MIC: 0.5 µg/mL
Escherichia coli [6]
  MIC: < 0.06 µg/mL
Escherichia coli [7]
  MIC: 0.12 µg/mL
Escherichia coli [8]
  MIC: 0.12 µg/mL
Escherichia coli [9]
  MIC: 2 µg/mL
Escherichia coli [10]
  MIC: 0.25 µg/mL
Aeromonas sobria
  MIC: > 64 µg/mL
Escherichia coli [11]
  MIC: 0.12 µg/mL
Escherichia coli [12]
  MIC: 0.12 µg/mL
Escherichia coli [13]
  MIC: < 0.06 µg/mL
Staphylococcus aureus
  MIC: < 0.06 µg/mL
Klebsiella pneumoniae [14]
  MIC: 1 µg/mL
Escherichia coli [15]
  MIC: 16 µg/mL
Enterobacter cloacae [16]
  MIC: 1 µg/mL
Escherichia coli [17]
  MIC: 0.12 µg/mL
[18]
  MIC: > 64 µg/mL
Klebsiella aerogenes
  MIC: 1 µg/mL
Escherichia coli [19]
  MIC: 0.12 µg/mL
Escherichia coli [20]
  MIC: < 0.06 µg/mL
Escherichia coli [21]
  MIC: 64 µg/mL
Escherichia coli [22]
  MIC: 0.5 µg/mL
Escherichia coli [23]
  MIC: 0.5 µg/mL
Klebsiella pneumoniae [24]
  MIC: < 0.06 µg/mL
Klebsiella pneumoniae [25]
  MIC: 0.12 µg/mL
Serratia marcescens
  MIC: 1 µg/mL
Escherichia coli [26]
  MIC: < 0.06 µg/mL
Escherichia coli [27]
  MIC: 0.25 µg/mL
Escherichia coli [28]
  MIC: 0.12 µg/mL
Escherichia coli [29]
  MIC: < 0.06 µg/mL
Enterobacter cloacae [30]
  MIC: > 64 µg/mL

## C[C@]1(COC(=O)Cc2ccccc2)[C@H](C(=O)O)N2C(=O)/C(=C/c3ccccn3)C2S1(=O)=O (stereo partly drawn)
Beta-lactamase TEM
  pIC50: 7.40
Beta-lactamase [1]
  pIC50: 9.00
Beta-lactamase [2]
  pIC50: 6.41

## COC(=O)/C=C1/C(=O)N2C1S(=O)(=O)[C@@](C)(COC(=O)CSc1nnnn1C)[C@@H]2C(=O)O (stereo partly drawn)
Beta-lactamase TEM
  pIC50: 5.63
Beta-lactamase [1]
  pIC50: 4.88
Beta-lactamase [2]
  pIC50: 3.03

## C[C@]1(COC(=O)CCl)[C@H](C(=O)O)N2C(=O)/C(=C/C(=O)O)[C@H]2S1(=O)=O
Beta-lactamase TEM
  pIC50: 6.71
Beta-lactamase [2]
  pIC50: 5.14

## COC(=O)/C=C1/C(=O)N2C1S(=O)(=O)[C@@](C)(CCl)[C@@H]2C(=O)O (stereo partly drawn)
Beta-lactamase [1]
  pIC50: 4.86
Beta-lactamase [2]
  pIC50: 3.36

## C[C@]1(/C=C/C#N)[C@H](C(=O)O)N2C(=O)/C(=C/C(=O)O)C2S1(=O)=O (stereo partly drawn)
Beta-lactamase TEM
  pIC50: 4.66
Beta-lactamase [1]
  pIC50: 5.17
Beta-lactamase [2]
  pIC50: 3.30

## CCN1CCN(C(=O)NC(C(=O)N[C@@H]2C(=O)N3[C@@H]2SC(C)(C)[C@@H]3C(=O)[O-])c2ccccc2)C(=O)C1=O.C[C@]1(Cn2ccnn2)C(C(=O)[O-])N2C(=O)C[C@H]2S1(=O)=O.[Na+].[Na+] (stereo partly drawn)
Escherichia coli [3]
  MIC: 8 µg/mL
Escherichia coli [4]
  MIC: 16 µg/mL
Escherichia coli [5]
  MIC: 2 µg/mL
Pseudomonas aeruginosa
  MIC: 16 µg/mL
Escherichia coli [6]
  MIC: 2 µg/mL
Escherichia coli [7]
  MIC: < 0.06 µg/mL
Escherichia coli [8]
  MIC: 2 µg/mL
Escherichia coli [9]
  MIC: > 64 µg/mL
Escherichia coli [10]
  MIC: 8 µg/mL
Aeromonas sobria
  MIC: 64 µg/mL
Escherichia coli [11]
  MIC: 2 µg/mL
Escherichia coli [31]
  MIC: 2 µg/mL
Escherichia coli [12]
  MIC: 2 µg/mL
Escherichia coli [13]
  MIC: 4 µg/mL
Staphylococcus aureus
  MIC: 1 µg/mL
Klebsiella pneumoniae [14]
  MIC: 32 µg/mL
Escherichia coli [15]
  MIC: > 64 µg/mL
Enterobacter cloacae [16]
  MIC: > 64 µg/mL
Escherichia coli [17]
  MIC: 1 µg/mL
[18]
  MIC: > 64 µg/mL
Klebsiella aerogenes
  MIC: 32 µg/mL
Escherichia coli [19]
  MIC: 16 µg/mL
Escherichia coli [20]
  MIC: 1 µg/mL
Escherichia coli [21]
  MIC: 8 µg/mL
Escherichia coli [22]
  MIC: 8 µg/mL
Escherichia coli [23]
  MIC: 8 µg/mL
Klebsiella pneumoniae [24]
  MIC: 2 µg/mL
Klebsiella pneumoniae [25]
  MIC: 8 µg/mL
Serratia marcescens
  MIC: 32 µg/mL
Escherichia coli [26]
  MIC: 4 µg/mL
Escherichia coli [27]
  MIC: 16 µg/mL
Escherichia coli [28]
  MIC: 4 µg/mL
Escherichia coli [29]
  MIC: 4 µg/mL
Enterobacter cloacae [30]
  MIC: 16 µg/mL

## Cn1nnnc1SCC(=O)OC[C@@]1(C)[C@H](C(=O)O)N2C(=O)/C(=C/C(=O)O)C2S1(=O)=O (stereo partly drawn)
Beta-lactamase TEM
  pIC50: 6.63
Beta-lactamase [1]
  pIC50: 6.19

## CCN1CCN(C(=O)N[C@@H](C(=O)N[C@@H]2C(=O)N3[C@@H]2SC(C)(C)[C@@H]3C(=O)O)c2ccccc2)C(=O)C1=O [PIPERACILLIN]
Escherichia coli [3]
  MIC: > 64 µg/mL
Escherichia coli [4]
  MIC: > 64 µg/mL
Pseudomonas aeruginosa
  MIC: > 64 µg/mL
Escherichia coli [6]
  MIC: 2 µg/mL
Escherichia coli [7]
  MIC: < 0.06 µg/mL
Escherichia coli [8]
  MIC: 4 µg/mL
Escherichia coli [9]
  MIC: > 64 µg/mL
Escherichia coli [10]
  MIC: > 64 µg/mL
Aeromonas sobria
  MIC: 64 µg/mL
Escherichia coli [31]
  MIC: 2 µg/mL
Escherichia coli [13]
  MIC: > 64 µg/mL
Staphylococcus aureus
  MIC: > 64 µg/mL
Klebsiella pneumoniae [14]
  MIC: > 64 µg/mL
Escherichia coli [15]
  MIC: > 64 µg/mL
Enterobacter cloacae [16]
  MIC: > 64 µg/mL
Escherichia coli [17]
  MIC: 32 µg/mL
[18]
  MIC: > 64 µg/mL
Klebsiella aerogenes
  MIC: > 64 µg/mL
Escherichia coli [19]
  MIC: > 64 µg/mL
Escherichia coli [20]
  MIC: > 64 µg/mL
Escherichia coli [21]
  MIC: > 64 µg/mL
Escherichia coli [22]
  MIC: 64 µg/mL
Escherichia coli [23]
  MIC: > 64 µg/mL
Klebsiella pneumoniae [24]
  MIC: > 64 µg/mL
Klebsiella pneumoniae [25]
  MIC: > 64 µg/mL
Serratia marcescens
  MIC: 64 µg/mL
Escherichia coli [26]
  MIC: > 64 µg/mL
Escherichia coli [27]
  MIC: > 64 µg/mL
Escherichia coli [29]
  MIC: 16 µg/mL
Enterobacter cloacae [30]
  MIC: > 64 µg/mL

## CC(=O)OC[C@@]1(C)[C@H](C(=O)O)N2C(=O)/C(=C/C(=O)O)C2S1(=O)=O (stereo partly drawn)
Beta-lactamase TEM
  pIC50: 6.74
Beta-lactamase [1]
  pIC50: 6.15
Beta-lactamase [2]
  pIC50: 4.12
